Here are results for five substances from US10359432B2, “Methods for detecting antibodies” (The Regents of the University of California, priority 2008, dated 2019).

As a reminder, the Kd is the concentration at which binding is half-saturated.

Bridge positions count the residues as written; N and C are the ends. Ends that are not written are not given here. * marks the point of attachment. Biotin = O=C1N[C@H]2[C@H](CS[C@H]2CCCCC(=O)*)N1

One assay has as its target alemtuzumab. The assay can be described thus: Antibody-peptide binding kinetics, SkiPro interferometer, whole mAb. The settings on record: whole molecule alemtuzumab. An excerpt:
(§1) FIGS. 7A to 7D include graphical illustrations showing the kinetics of antibody-peptide binding. Biotinylated peptides were captured onto streptavidin coated nanoporous surfaces. The binding of the mAb or their Fab fragments was monitored on a SkiPro™ interferometer. The binding curves were globally fit to a single binding site association/dissociation model to derive Kon, Koff, and Kd values.
(§2) Kinetics of antibody-peptide binding were studied using SkiPro™ Biomolecular Interaction technology platform on a SkiPro™ interferometer equipped with a 2-channel flow cell and an autosampler (Silicon Kinetics Inc. San Diego, Calif.). All reagents were purchased from Sigma-Aldrich (St. Louis, Mo.). All peptides were incubated with oxidizing agent Sodium Tetrathionate at 10 mM in PBS for 1 hour immediately before binding experiments. Biotinylated peptides were diluted to 5 μM in PBS/0.05% BSA and immobilized on Streptavidin-coated SkiSensor™ Biochips for 10 minutes at 4 μl/min flow rate. […] Concentration series of antibodies and antibody Fab fragments were prepared as twofold dilutions in PBS/0.05% BSA. Binding was carried out for 10 minutes followed by 20 minutes dissociation. For all sensorgrams reference channel data was subtracted from the sample channel. The resulting multi-concentration series of binding curves were globally fit to a single binding site association/dissociation model.
(§3) Biotinylated peptides were used for kinetic binding measurements using nano-pore optical interferometry (FIGS. 7A-7D).

Assay [1] concerns the target Fab fragments of alemtuzumab. The assay can be described thus: Antibody-peptide binding kinetics, SkiPro interferometer, Fab fragments. As to the method:
as §1
Antibodies were prepared as follows. Alemtuzumab (Genzyme, Cambridge, Mass.) and rituximab (Genentech, San Francisco, Calif.) were obtained from the UCSD Cancer Center pharmacy. The antibodies were fluorescently labeled using the Zenon® R-Phycoerythrin Human IgG labeling kit, Zenon® Alexa Fluor® 488 Human IgG labeling and Zenon® Alexa Fluor® 488 protein labeling kits (Invitrogen, Carlsbad, Calif.). For kinetic studies, Fab fragments of each mAb were prepared by papain digestion using a Fab preparation kit (Thermo Fisher Scientific, Rockford, Ill.) as per manufacturers instructions.
as §2, §3

A further assay concerns primary CLL cells. The assay can be described thus: Peptide inhibition of CLL cell staining by labeled mAb, flow cytometry. Type of assay: cell-based, human. The conditions noted are these: for Staining of primary CLL cells by fluorescently labeled mAb: no peptide. Here is the method:
The shaded histogram represents staining with labeled human IgG.
After informed consent was obtained per the Declaration of Helsinki, blood samples were collected from patients at the University of California, San Diego (UCSD) Medical Center who satisfied diagnosis and immunophenotypic criteria for common B-cell CLL.
Subsequently, cells were washed two times with 100 μl FACS-wash (PBS, 5% FCS and 0.5% sodium azide) and fixed with 100 μl with 3.7% formaldehyde in PBS.
There was no effect on the binding activity of the other mAb (data not shown).
On the technique in general: In flow cytometry, cells or beads pass a laser one at a time.

Turning to ACGSLSPSSC [Cp-1], on alemtuzumab, the affinity, expressed as Kd, was 163 nM and the Koff was 0.00132 s⁻¹. In the assay with alemtuzumab (biotinylated peptide on streptavidin surface), this substance had a Kon of 8130 M⁻¹ s⁻¹. In assay [1], this substance had a Kd of 2050 nM, a Koff of 0.00505 s⁻¹ and a Kon of 2460 M⁻¹ s⁻¹.

In the case of “ACGSLSPSSCGGK (ACGSLSPSSCGGK(Biotin); disulfide 2-10 (inferred)) [pCp-1B]”, the “CLL cell labeling by fluorescently labeled alemtuzumab with peptide added” value in the assay on primary CLL cells (peptide at 25,000 molar excess) is “largely abrogated”.

As for “ACPYSNPSLCGGK (ACPYSNPSLCGGK(Biotin); disulfide 2-10 (inferred)) [pRTX-10B]”, the “CLL cell labeling by fluorescently labeled rituximab with peptide added” value with primary CLL cells (peptide at 25,000 molar excess) is “largely abrogated”.

Turning to alemtuzumab [reference compound], in the assay with primary CLL cells, the “Staining of primary CLL cells by fluorescently labeled mAb” value is given as “robust staining”.

Consider rituximab [reference compound], for which, in the assay with primary CLL cells, the “Staining of primary CLL cells by fluorescently labeled mAb” value is “weak”.
